These results are taken from ChEMBL document CHEMBL5346920, “Development of the "hidden" multi-target-directed ligands by AChE/BuChE for the treatment of Alzheimer's disease” (Eur J Med Chem, 2023).

The target in one data set is Acetylcholinesterase (Electrophorus electricus, UniProt O42275). Kind of data set: Drug metabolism assessed as electric eel AChE-mediated 3-(4-fluorophenyl)-1-(2-hydroxyphenyl)prop-2-en-1-one formation treated at 150 mmol/L with 0.25U AChE and measured after 6 secs by HPLC analysis. The data set is classed as ADME. To be noted: 6 s, time 6 sec.
Chain of Acetylcholinesterase (O42275 whole entry): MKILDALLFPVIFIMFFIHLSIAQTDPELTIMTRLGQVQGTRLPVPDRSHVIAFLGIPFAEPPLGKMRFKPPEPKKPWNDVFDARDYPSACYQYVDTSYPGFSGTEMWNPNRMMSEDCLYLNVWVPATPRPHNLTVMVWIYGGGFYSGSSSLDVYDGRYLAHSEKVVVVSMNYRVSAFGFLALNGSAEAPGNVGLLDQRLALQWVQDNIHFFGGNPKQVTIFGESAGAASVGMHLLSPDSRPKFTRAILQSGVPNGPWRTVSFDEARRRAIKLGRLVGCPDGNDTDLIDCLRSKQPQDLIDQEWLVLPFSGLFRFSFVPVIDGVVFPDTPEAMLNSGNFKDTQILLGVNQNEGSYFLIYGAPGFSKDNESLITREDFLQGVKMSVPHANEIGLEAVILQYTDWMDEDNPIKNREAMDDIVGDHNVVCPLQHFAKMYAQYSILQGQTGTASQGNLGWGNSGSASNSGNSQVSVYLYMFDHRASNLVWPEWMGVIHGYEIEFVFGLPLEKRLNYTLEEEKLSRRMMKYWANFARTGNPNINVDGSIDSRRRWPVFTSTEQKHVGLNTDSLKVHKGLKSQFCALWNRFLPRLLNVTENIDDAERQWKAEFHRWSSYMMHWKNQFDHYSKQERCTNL
The target of data set [1] is T1, Cholinesterase (Equus caballus, UniProt P81908). Kind of data set: Drug metabolism assessed as equine serum BuChE-mediated 3-(4-fluorophenyl)-1-(2-hydroxyphenyl)prop-2-en-1-one formation treated at 150 mmol/L with 0.05U BuChE and measured after 9 mins by HPLC analysis. The data set is classed as ADME, cell-free. As to conditions: horse, 0.15 h.
T1 sequence (P81908 whole entry): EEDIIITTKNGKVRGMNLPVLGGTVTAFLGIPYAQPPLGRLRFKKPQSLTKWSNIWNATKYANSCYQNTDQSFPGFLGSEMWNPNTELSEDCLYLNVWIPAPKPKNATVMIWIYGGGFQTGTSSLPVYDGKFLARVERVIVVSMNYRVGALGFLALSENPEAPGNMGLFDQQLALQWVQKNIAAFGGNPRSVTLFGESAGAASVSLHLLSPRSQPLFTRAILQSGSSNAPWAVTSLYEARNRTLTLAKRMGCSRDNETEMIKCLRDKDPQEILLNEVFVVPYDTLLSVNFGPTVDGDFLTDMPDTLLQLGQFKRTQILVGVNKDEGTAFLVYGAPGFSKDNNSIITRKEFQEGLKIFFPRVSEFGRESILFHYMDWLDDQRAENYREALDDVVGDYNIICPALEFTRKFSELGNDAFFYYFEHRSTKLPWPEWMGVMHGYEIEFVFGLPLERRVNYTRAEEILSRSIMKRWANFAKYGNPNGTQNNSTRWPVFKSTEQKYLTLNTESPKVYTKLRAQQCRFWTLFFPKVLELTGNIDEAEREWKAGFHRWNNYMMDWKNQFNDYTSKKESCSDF
The test system of the next data set is BV-2. The data set can be described thus: Anti-inflammatory activity against LPS-stimulated mouse BV-2 cells assessed as inhibition of LPS-induced IL-1 beta production incubated for 24 hrs in presence of LPS. It counts as functional, cell-based. To be noted: dose 1-9 µM.
For data set [2], the target named is Acetylcholinesterase (Electrophorus electricus) (UniProt O42275). Kind of data set: Reversible inhibition of electric eel AChE assessed as enzyme activity using acetylthiocholine iodide as substrate measured after dilution to 0.1XIC50 for 120 mins by Ellman's method. Set-up: scale not given: the % may be the effect or the level left.
Chain of Acetylcholinesterase (Electrophorus electricus) (O42275 24-633 limits assumed): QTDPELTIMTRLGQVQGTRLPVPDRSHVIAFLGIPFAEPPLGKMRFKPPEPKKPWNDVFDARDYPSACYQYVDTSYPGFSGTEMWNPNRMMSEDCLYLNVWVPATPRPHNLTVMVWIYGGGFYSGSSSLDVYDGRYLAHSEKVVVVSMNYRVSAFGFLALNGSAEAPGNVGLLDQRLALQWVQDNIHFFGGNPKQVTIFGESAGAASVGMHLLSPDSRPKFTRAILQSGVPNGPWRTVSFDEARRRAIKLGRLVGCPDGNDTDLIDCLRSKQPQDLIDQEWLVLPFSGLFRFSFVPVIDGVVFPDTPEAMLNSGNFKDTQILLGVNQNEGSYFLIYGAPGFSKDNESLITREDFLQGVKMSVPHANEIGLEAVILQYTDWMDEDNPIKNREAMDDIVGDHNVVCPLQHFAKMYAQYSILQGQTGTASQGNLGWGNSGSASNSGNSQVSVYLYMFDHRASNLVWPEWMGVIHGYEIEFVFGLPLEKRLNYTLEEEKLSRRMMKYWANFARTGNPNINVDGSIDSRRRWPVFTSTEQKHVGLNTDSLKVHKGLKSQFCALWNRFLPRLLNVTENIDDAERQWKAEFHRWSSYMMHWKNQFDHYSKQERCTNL
Data set [3] is filed under the species Danio rerio. The data set can be described thus: Neuroprotective activity against AlCl3-induced Alzheimer's disease zebra fish model assessed as distance velocity at 0.0049 ug/ml treated for 24 hrs and measured after 24 hrs under dark environment (reference value: 10.4 cm/min). The data set is classed as functional. To be noted: dose 0.0049 µg/ml; time 48 hrs.

The species named for data set [4] is Danio rerio. Kind of data set: Neuroprotective activity against AlCl3-induced Alzheimer's disease zebra fish model assessed as inhibition of AlCl3-induced AChE activity at 0.0049 to 0.078 ug/ml treated for 24 hrs and measured after 24 hrs. It counts as functional, organism-based. To be noted: dose 0.0049-0.078 µg/ml, time 48.0 hrs.
Data set [5] has as its system PC-12. The data set can be described thus: Neuroprotective activity against Amyloid beta(25 to 35)-induced cell injury in rat PC12 cells assessed as cell viability at 10 uM pretreated for 2 hrs followed by incubation with Abeta(25 to 35) for 24 hrs by CCK-8 assay (reference value: 41 to 58.6%). To be noted: time 26 hrs, read-out: Activity. It counts as functional.
The species entered for data set [6] is Danio rerio. Kind of data set: Neuroprotective activity against AlCl3-induced Alzheimer's disease zebra fish model assessed as distance velocity at 0.078 ug/ml treated for 24 hrs and measured after 24 hrs under dark environment (reference value: 10.4 cm/min). The data set is classed as functional. As to conditions: dose 0.078 µg/ml; time 48 hrs.
For data set [7], the species on record is Danio rerio. Kind of data set: Antialzheimer activity against AlCl3-induced Alzheimer's disease zebra fish model assessed as total distance moved at 0.078 ug/ml treated for 24 hrs and measured after 24 hrs under dark environment (reference value: 312 cm). As to conditions: dose 0.078 µg/ml; time 48 hrs. It counts as functional.
For data set [8], the species on record is Danio rerio. The data set can be described thus: Neuroprotective activity against AlCl3-induced Alzheimer's disease zebra fish model assessed as distance velocity at 0.0195 ug/ml treated for 24 hrs and measured after 24 hrs under dark environment (reference value: 10.4 cm/min). The data set is classed as functional. To be noted: dose 0.0195 µg/ml; time 48 hrs.

Data set [9] is filed under the species Danio rerio. Kind of data set: Antialzheimer activity against AlCl3-induced Alzheimer's disease zebra fish model assessed as improvement in total distance velocity at 0.0195 ug/ml treated for 24 hrs and measured after 24 hrs. It counts as functional, organism-based. As to conditions: dose 0.0195 µg/ml, time 48.0 hrs.
Data set [10] is filed under the species Danio rerio. The data set can be described thus: Antialzheimer activity against AlCl3-induced Alzheimer's disease zebra fish model assessed as total distance moved at 0.0195 ug/ml treated for 24 hrs and measured after 24 hrs under dark environment (reference value: 312 cm). To be noted: dose 0.0195 µg/ml; time 48 hrs. It counts as functional.
Data set [11] can be described thus: Acute toxicity in zebra fish assessed as proportion of dead zebrafish at 5 to 10 ug/ml and measured every 24 hrs upto 120 hours post fertilization. Details: species or system Danio rerio. To be noted: in vivo, at 5 to 10 µg/mL, dose 5-10 µg/ml, read-out: Activity.
Data set [12] relates to PC-12. Kind of data set: Cytotoxicity against rat PC-12 cells assessed as cell viability at 40 uM by CCK-8 assay. The data set is classed as toxicity, cell-based. To be noted: pc-12, 40 µM. (In general: Tetrazolium assays rely on reduction of a dye to a coloured formazan, in cell work by metabolically active cells.)
For data set [13], the target named is T1, Cholinesterase. The data set can be described thus: Drug metabolism assessed as equine serum BuChE-mediated 3-(4-fluorophenyl)-1-(2-hydroxyphenyl)prop-2-en-1-one formation with 0.25U BuChE for 9 mins by HPLC analysis. The data set is classed as ADME, cell-free. As to conditions: horse, 0.15 h.
The species named for data set [14] is Danio rerio. Kind of data set: Antialzheimer activity against AlCl3-induced Alzheimer's disease zebra fish model assessed as total distance moved at 0.078 ug/ml treated for 24 hrs and measured after 24 hrs under light environment (reference value: 230 cm). To be noted: dose 0.078 µg/ml; time 48 hrs. It counts as functional.

Calls of active or inactive are those of the source. The calls are words filed in the database; no cut-off is given here.

By Km is commonly meant the concentration of substrate that gives half-maximal velocity. As for `CCN(C)C(=O)Oc1ccccc1C(=O)/C=C/c1ccc(F)cc1`, the Drug metabolism worked out at 1.46 mmol/L on Acetylcholinesterase and 14.17 mmol/L on Cholinesterase [1]. The Activity entry with BV-2 was “Dose-Dependent Effect”; in data set [2] it was 88.7%; in the data set listed under Danio rerio [3], 13 cm/min; in the data set filed under Danio rerio [6] it was 17.9 cm/min; in the data set filed under Danio rerio [7] it was 537 cm; in the data set listed under Danio rerio [8], 19.2 cm/min. In addition, the Activity is 577 cm in the data set filed under Danio rerio [10], “Non-Toxic” in the data set on PC-12 [12] and 226 cm in the data set listed under Danio rerio [14]. Also, the outcome in the data set filed under Danio rerio [4] and in the data set listed under Danio rerio [9] was Active. Further, in the data set on PC-12 [5], the viability at 10 µM amounted to 75%. Further, the mortality in data set [11] turned out to be 100%. Also, at Cholinesterase [13], the Michaelis constant (Km) was determined as 113 µM.
